Laboratory results as given in the NIST ThermoML archive (doi:10.1016/j.jct.2016.06.016).
Numbers after ± are expanded uncertainties.

Assays:
[1] = xn = mol fraction of the nth substance listed; settings: 100 kPa, Liquid, x2 = 0; for viscosity: Concentric cylinders viscometry; for mass density: Vibrating tube method
[2] = refractive index (Na D-line) (dimensionless); xn = mol fraction of the nth substance listed; settings: 100 kPa, Liquid, Standard Abbe refractometry, x2 = 0
[3] = 100 kPa, Liquid; for viscosity: Concentric cylinders viscometry; for mass density: Vibrating tube method
[4] = refractive index (Na D-line) (dimensionless); settings: 100 kPa, Liquid, Standard Abbe refractometry

CCCCCCO [hexan-1-ol] + CCOC(=O)CCC(=O)OCC
viscosity ([1]; 288.15 K): 6.308 ± 0.058 mPa·s | mass density ([1]; 288.15 K): 822.26 ± 0.83 kg/m3 | viscosity ([1]; 293.15 K): 5.332 ± 0.05 mPa·s | mass density ([1]; 293.15 K): 818.7 ± 0.83 kg/m3 | viscosity ([1]; 298.15 K): 4.538 ± 0.042 mPa·s | mass density ([1]; 298.15 K): 815.12 ± 0.83 kg/m3 | viscosity ([1]; 303.15 K): 3.896 ± 0.037 mPa·s | mass density ([1]; 303.15 K): 811.52 ± 0.83 kg/m3 | viscosity ([1]; 308.15 K): 3.361 ± 0.032 mPa·s | mass density ([1]; 308.15 K): 807.89 ± 0.83 kg/m3 | viscosity ([1]; 313.15 K): 2.917 ± 0.028 mPa·s | mass density ([1]; 313.15 K): 804.25 ± 0.83 kg/m3 | viscosity ([1]; 318.15 K): 2.546 ± 0.024 mPa·s | mass density ([1]; 318.15 K): 800.56 ± 0.83 kg/m3 | viscosity ([1]; 323.15 K): 2.241 ± 0.022 mPa·s | mass density ([1]; 323.15 K): 796.85 ± 0.83 kg/m3 | refractive index ([2]; 288.15 K): 1.4196 ± 0.0014 | refractive index ([2]; 293.15 K): 1.4176 ± 0.0014 | refractive index ([2]; 298.15 K): 1.4156 ± 0.0014 | refractive index ([2]; 303.15 K): 1.4136 ± 0.0014 | refractive index ([2]; 308.15 K): 1.4117 ± 0.0014 | refractive index ([2]; 313.15 K): 1.4097 ± 0.0014 | refractive index ([2]; 318.15 K): 1.4078 ± 0.0014 | refractive index ([2]; 323.15 K): 1.4058 ± 0.0014

CCCO [propan-1-ol] + CCOC(=O)CCC(=O)OCC
viscosity ([1]; 288.15 K): 2.514 ± 0.022 mPa·s | mass density ([1]; 288.15 K): 807.75 ± 0.81 kg/m3 | viscosity ([1]; 293.15 K): 2.208 ± 0.019 mPa·s | mass density ([1]; 293.15 K): 803.77 ± 0.81 kg/m3 | viscosity ([1]; 298.15 K): 1.95 ± 0.017 mPa·s | mass density ([1]; 298.15 K): 799.76 ± 0.81 kg/m3 | viscosity ([1]; 303.15 K): 1.727 ± 0.015 mPa·s | mass density ([1]; 303.15 K): 795.72 ± 0.81 kg/m3 | viscosity ([1]; 308.15 K): 1.542 ± 0.014 mPa·s | mass density ([1]; 308.15 K): 791.64 ± 0.81 kg/m3 | viscosity ([1]; 313.15 K): 1.378 ± 0.013 mPa·s | mass density ([1]; 313.15 K): 787.52 ± 0.81 kg/m3 | viscosity ([1]; 318.15 K): 1.236 ± 0.012 mPa·s | mass density ([1]; 318.15 K): 783.36 ± 0.81 kg/m3 | viscosity ([1]; 323.15 K): 1.124 ± 0.011 mPa·s | mass density ([1]; 323.15 K): 779.14 ± 0.81 kg/m3 | refractive index ([2]; 288.15 K): 1.3875 ± 0.0014 | refractive index ([2]; 293.15 K): 1.3854 ± 0.0014 | refractive index ([2]; 298.15 K): 1.3834 ± 0.0014 | refractive index ([2]; 303.15 K): 1.3814 ± 0.0014 | refractive index ([2]; 308.15 K): 1.3792 ± 0.0014 | refractive index ([2]; 313.15 K): 1.377 ± 0.0014 | refractive index ([2]; 318.15 K): 1.3748 ± 0.0014 | refractive index ([2]; 323.15 K): 1.3726 ± 0.0014

CCOC(=O)CCC(=O)OCC [diethyl butanedioate]
viscosity ([3]; 288.15 K): 3.195 ± 0.03 mPa·s | mass density ([3]; 288.15 K): 1044.83 ± 0.84 kg/m3 | viscosity ([3]; 293.15 K): 2.807 ± 0.027 mPa·s | mass density ([3]; 293.15 K): 1039.63 ± 0.83 kg/m3 | viscosity ([3]; 298.15 K): 2.491 ± 0.024 mPa·s | mass density ([3]; 298.15 K): 1034.44 ± 0.83 kg/m3 | viscosity ([3]; 303.15 K): 2.229 ± 0.022 mPa·s | mass density ([3]; 303.15 K): 1029.25 ± 0.83 kg/m3 | viscosity ([3]; 308.15 K): 2.008 ± 0.02 mPa·s | mass density ([3]; 308.15 K): 1024.08 ± 0.83 kg/m3 | viscosity ([3]; 313.15 K): 1.821 ± 0.018 mPa·s | mass density ([3]; 313.15 K): 1018.9 ± 0.83 kg/m3 | viscosity ([3]; 318.15 K): 1.66 ± 0.017 mPa·s | mass density ([3]; 318.15 K): 1013.72 ± 0.83 kg/m3 | viscosity ([3]; 323.15 K): 1.523 ± 0.015 mPa·s | mass density ([3]; 323.15 K): 1008.55 ± 0.83 kg/m3 | refractive index ([4]; 288.15 K): 1.4217 ± 0.0014 | refractive index ([4]; 293.15 K): 1.4195 ± 0.0014 | refractive index ([4]; 298.15 K): 1.4173 ± 0.0014 | refractive index ([4]; 303.15 K): 1.4151 ± 0.0014 | refractive index ([4]; 308.15 K): 1.4129 ± 0.0014 | refractive index ([4]; 313.15 K): 1.4108 ± 0.0014 | refractive index ([4]; 318.15 K): 1.4088 ± 0.0014 | refractive index ([4]; 323.15 K): 1.4067 ± 0.0014

CCCCO [butan-1-ol] + CCOC(=O)CCC(=O)OCC
viscosity ([1]; 288.15 K): 3.365 ± 0.028 mPa·s | mass density ([1]; 288.15 K): 813.46 ± 0.81 kg/m3 | viscosity ([1]; 293.15 K): 2.913 ± 0.025 mPa·s | mass density ([1]; 293.15 K): 809.66 ± 0.81 kg/m3 | viscosity ([1]; 298.15 K): 2.563 ± 0.022 mPa·s | mass density ([1]; 298.15 K): 805.84 ± 0.81 kg/m3 | viscosity ([1]; 303.15 K): 2.257 ± 0.019 mPa·s | mass density ([1]; 303.15 K): 801.99 ± 0.81 kg/m3 | viscosity ([1]; 308.15 K): 1.994 ± 0.017 mPa·s | mass density ([1]; 308.15 K): 798.12 ± 0.81 kg/m3 | viscosity ([1]; 313.15 K): 1.779 ± 0.016 mPa·s | mass density ([1]; 313.15 K): 794.22 ± 0.81 kg/m3 | viscosity ([1]; 318.15 K): 1.576 ± 0.014 mPa·s | mass density ([1]; 318.15 K): 790.28 ± 0.81 kg/m3 | viscosity ([1]; 323.15 K): 1.422 ± 0.013 mPa·s | mass density ([1]; 323.15 K): 786.29 ± 0.81 kg/m3 | refractive index ([2]; 288.15 K): 1.4012 ± 0.0014 | refractive index ([2]; 293.15 K): 1.3992 ± 0.0014 | refractive index ([2]; 298.15 K): 1.3972 ± 0.0014 | refractive index ([2]; 303.15 K): 1.3951 ± 0.0014 | refractive index ([2]; 308.15 K): 1.393 ± 0.0014 | refractive index ([2]; 313.15 K): 1.391 ± 0.0014 | refractive index ([2]; 318.15 K): 1.3889 ± 0.0014 | refractive index ([2]; 323.15 K): 1.3867 ± 0.0014
